Molecules are shown by their SMILES.

The target in experiment [1] is wild-type 80 queC RNA. Kind of experiment: In-line probing analysis of wild-type 80 queC RNA. As to conditions: for structure modulation: wild-type 80 queC, 200 μM. The format is binding, B. subtilis. The text has this: This possibility was examined by comparing the ligand binding characteristics of a wild-type queC construct (80 queC) with those of two mutant RNAs in which absolutely conserved cytidine residues were individually replaced with uridines (FIG. 6a). 2,6-diaminopurine was included in the panel of test compounds since it was previously established that the 2-amino group was critical for ligand recognition by the preQ1 aptamer (FIG. 4c). It was therefore anticipated that compounds lacking this moiety, such as adenine or 7-aminomethyl-7-deazaadenine, might not bind detectably, despite their potential for base pairing with a uridyl discriminator residue.
(§1) In-line probing analysis. […] .

For experiment [2], the system named is M1 RNA (80 queC, cytidine 34 replaced with uridine). The experiment in a line: In-line probing analysis of 80 queC mutant M1. The experiment is classed as binding, B. subtilis. Conditions: for structure modulation: 200 μM.
Experiment [3] relates to queC RNA construct containing the analogous C34U mutation. The experiment in a line: In-line probing of a queC RNA construct with the analogous C34U mutation. The format is binding. Conditions: concentrations as high as 1 mM.
Description: as §1

In experiment [4] the test system is 106 queC RNA. The experiment in a line: Equilibrium dialysis, competition with 3H-guanine. The experiment is classed as binding, B. subtilis. Conditions: 100 nM 3H-guanine, 20 μM RNA, unlabeled compound at a concentration exceeding that of the RNA. The text has this: To provide additional support for a specific physical interaction between preQ1 and the queC RNA motif, competitive binding experiments were done using an equilibrium dialysis apparatus containing two chambers separated by a permeable membrane with a molecular weight cut-off of 5000 Daltons (FIG. 4d). Because guanine is recognized by the queC motif with nanomolar affinity (FIG. 4c), we first added ^3H-guanine and a molar excess of 106 queC RNA individually to the respective chambers. […].
Samples containing either 100 nM ^3H-guanine or 20 μM 106 queC RNA, each prepared in the same buffer solution used for in-line probing, were added in 30 μL volumes to opposite chambers of a DispoEquilibrium Dialyzer (ED-1, Harvard Bioscience). Following equilibration at 25° C. for 10-15 h, aliquots of 5 μL were withdrawn and quantitated with a liquid scintillation counter. For competitive binding experiments, 3 μL of buffer containing 1 mM unlabeled test compound was subsequently delivered to the RNA-containing chamber, while the same volume of buffer was added to the opposite chamber. After another equilibration period, 5 μL aliquots were again removed to assess the distribution of ^3H-guanine.
(In general: In equilibrium dialysis only unbound substance equilibrates across the membrane.)

For experiment [5], the target named is 52 queC RNA (B. subtilis queC element). The experiment in a line: In-line probing analysis of 52 queC RNA. The format is binding. As to conditions: in-line probing over a range of ligand concentrations, read-out: Kd (apparent).
Description: RNA construct 52 queC (FIG. 4a) was used to examine the degree of ligand selectivity of the B. subtilis queC element. Affinities for various purine compounds were determined by subjecting 5′ ^32P-labeled 52 queC to in-line probing analyses using a range of ligand concentrations, followed by the quantitative analysis of the levels of ligand-dependent structure modulation.
A more detailed understanding of the molecular contacts involved in ligand recognition by 52 queC was obtained by determining the apparent Kd values for a series of purine analogs (FIG. 4c).

Regarding `Nc1nc(N)c2[nH]cnc2n1` [2,6-diaminopurine], the Kd in experiment [1] (80 queC) is above 300000 nM; in experiment [2] (M1 (C34U), data not shown), above 300000 nM. In experiment [1] (80 queC), the “lowest concentration at which alterations in structure are detected” value stood at 10 µM. Further, the structure modulation result is given as “Structural changes in this construct are also induced” in experiment [1] and “key changes are observed” in experiment [2] (M1 (C34U)). Besides, in experiment [2] (C34U mutant with 2,6-diaminopurine versus wild-type queC RNA with guanine), the “relative loss in binding affinity” value is reported as “more than 600 fold”.

On to `NCC1C=Nc2ncnc(N)c21` (stereo not shown) [7-aminomethyl-7-deazaadenine], for which, in experiment [3], the “modulation of RNA structure” value is given as “fail to modulate the structure”.

As for `Nc1nc2c(c(=O)[nH]1)CC=N2` [7-deazaguanine], the “competition with 3H-guanine sequestration in the RNA chamber” value (from here on “competition”) in experiment [4] was “competitively reversed”.

For the compound `Nc1ncnc2nc[nH]c12` [adenine], the structure modulation result in experiment [1] is recorded as “does not result in structure modulation”; in experiment [2] (M1 (C34U)), “failure of adenine to induce any conformational response”. For the same compound, in experiment [4], the “competition” value is “did not serve as a competitor”. The “binding to M1 RNA” value in experiment [2] (M1 (C34U), in words) is recorded as “absence of adenine binding”.

As to `Nc1nc2nc[nH]c2c(=O)[nH]1` [guanine], in experiment [1], the structure modulation entry is “structure modulation occurs”. For the same compound, in experiment [4], the “competition” value is on record as “competitively reversed”. Further, in experiment [5], the Kd was around 500 nM.

As to `N#CC1C=Nc2nc(N)[nH]c(=O)c21` (stereo not shown) [preQ0, 7-cyano-7-deazaguanine], in experiment [5], the Kd was around 100 nM.

The values are drawn from patent US20130012527A1, “PREQ1 RIBOSWITCHES AND METHODS AND COMPOSITIONS FOR USE OF AND WITH PREQ1 RIBOSWITCHES” (YALE UNIVERSITY, priority 2007, published 2013).
